Here are results for 13 molecules from patent publication US20230107216A1, “PANTETHEINE DERIVATIVES AND USES THEREOF” (Comet Therapeutics, Inc., priority 2018, published 2023).

Like-named read-outs stand apart in the source and are kept apart here.

Series [1] deals with Peripheral blood mononuclear cells co-cultured with B-cells (BT system).
The test system of series [2] is Peripheral blood mononuclear cells co-cultured with venular endothelial cells (Sag system). The experiment in a line: BioMAP Sag system (T-cell ligands). In kind it is cell-based, human. The following applies: 10 uM; procedure of Example 828. Here is the method:
(§1) The BioMAP platform (BioMAP® Diversity PLUS® Panel from Eurofins) is an in vitro phenotypic profiling technology that screened the compounds of the present disclosure (hereafter indicated as test agents) in human primary cell-based systems modelling complex tissue and disease states. The BioMAP assays were performed using the Eurofin's BioMAP Technology Platform as (see references 1 to 13 in the example 824 section) to model different diseases on primary cell-based model systems. These systems consisted of either single primary cell types or co-culture cells. Adherent cell types were cultured or co-cultured in 96 or 384-well plates until confluence followed by the addition of compounds prepared in DMSO at a final concentration of ≤0.1%. In each cell-based system, primary cells from heathy donors (2-6 donors) were pooled and treated with compounds at 1 and 10 μM dose 1h prior to stimulation and remain in culture as indicated in Example 825, Example 826, Example 827, Example 828, Example 829, Example 830, Example 831, Example 832, Example 833, Example 834, Example 835, Example 836 and Example 837. For on the BioMAP® Diversity PLUS® Panel, please see the following references, which are incorporate herein.
Following the general procedure as described in Example 824, Peripheral blood mononuclear cells were co-cultured with venular endothelial cells and treated with soluble antigen (T-cell ligands) (Sag system) in the presence or absence of compounds to model autoimmune and chronic inflammation. Biomarkers read out were; MCP-1, CD38, CD40, E-selectin, CD69, IL-8, MIG, PBMC cytotoxicity, Proliferation and SRB.

In series [3] the test system is Keratinocytes co-cultured with dermal fibroblast (KF3CT system). Description: BioMAP KF3CT system (IL-1β, TNFα, IFNγ, TGFβ). In kind it is cell-based, human. The following applies: for % increase in MCP-1: procedure of Example 834. Here is the method: as §1
Following the general procedure as described in Example 824, Keratinocytes were co-cultured with dermal fibroblast (KF3CT system) and treated with IL-1β, TNFα, IFNγ and TGFβ for 24h in the presence or absence of the compounds to model psoriasis, dermatitis and skin biology. Biomarkers read out were; MCP-1, ICAM-1, IP-10, IL-8, MIG, IL-1α, MMP-9, PAI-1, SRB, TIMP-2, uPA.

In series [4] the test system is Pkd1−/− mouse inner medullary collecting duct cells (mIMRFNPKD 5E4). Description: mPKD 3D cyst swelling assay (forskolin-induced). In kind it is cell-based. Particulars: after 72 hours of forskolin exposure. As to the method:
Cell model and control compounds. mIMCD3 WT cells were obtained via ATCC and modified to create the mIMRFNPKD 5E4 cell line, which has a CRISPR-Cas mediated knockout for Pkd1 as described SLAS Discov. 2017 September; 22(8):974-984. doi: 10.1177/2472555217716056. Cells were cultured in DMEM/F12 (Sigma)+10% FBS (Sigma)+0.5% Pen/Strep (Gibco)+1% GluMax (Gibco). Control compounds used were forskolin (Calbiochem, 344282), Rapamycin (Selleckchem, S1039) and Staurosporin (Selleckchem, S1421).
The 3D mouse cyst swelling assay was performed with Pkd1^−/− mouse inner medullary collecting duct cells (mIMRFNPKD 5E4). The cyst swelling protocol that was used was described previously (SLAS Discov. 2017 September; 22(8):974-984. doi: 10.1177/2472555217716056), with further optimization.
3D culture and compound exposure. mIMRFNPKD 5E4 cells were mixed with Cyst-Gel (OcellO BV). 15 μL of cell-gel mix was pipetted to 384-well plates (Greiner μClear, Greiner Bio-One B.V.) using a CyBio Felix 96/60 robotic liquid dispenser (Analyik Jena AG). Gel-cell mix was plated at a final cell density of 2250 cells per well. After gel polymerization at 37° C. for 30 minutes, 33 μL culture medium was added to each well. Cells were grown in the gel for 96 hours, after which the cells were co-exposed with forskolin (Calbiochem, 344282) and one the following molecules: reference compound Rapamycin (SelleckChem, S1039), toxic control compound Staurosporin (SelleckChem, S1421) or test compounds.
Sample processing. After 72 hours, cultures were fixed with 4% Formaldehyde (Sigma Aldrich) and simultaneously permeabilized with 0.2% Triton-X100 (Sigma Aldrich) and stained with 0.25 μM rhodamine-phalloidin (Sigma Aldrich) and 0.1% Hoechst 33258 (Sigma Aldrich) in 1×PBS (Sigma Aldrich) for 2 days at 4° C., protected from light. After fixation and staining, plates were washed with 1×PBS, sealed with a Greiner SilverSeal (Greiner Bio-One B.V.) and stored at 4° C. prior to imaging.
Imaging and image analysis. Imaging was done using Molecular Devices ImageXpress Micro XLS (Molecular Devices) with a 4× NIKON objective. For each well around 35 images in the Z-direction were made for both channels, capturing the whole z-plane in each image. Image analysis was performed using Ominer™ software (OcellO BV). Cysts were segmented using detection of Hoechst-stained nuclei and Rhodamine-phalloidin-stained cellular f-actin. Cyst area was determined by calculating for the area in px of each object in every in-focus plain. This was averaged per well. (N represented is number of wells) Fraction of apoptotic nuclei as an indicator of toxicity was calculated as the amount of nuclei without actin signal relative to the total amount of nuclei, both as count-measurements. Statistics was done using KNIME Analytics Platform (Konstanz, Germany, http://www.knime.org/), graphs were prepared in GraphPad Prism 6 (GraphPad Software, La Jolla, Calif.).

Series [5] concerns Venular Endothelial cells (HUVEC) (3C system). The experiment in a line: BioMAP 3C system (IL-1β, TNFα, IFNγ). The following applies: 10 uM; procedure of Example 825. In kind it is cell-based, human. Here is the method:
as §1
Following the general procedure as described in Example 824, Venular Endothelial cells (HUVEC) (3C system) were treated with IL-1β, TNFα, IFNγ for 24h to model Th1 driven cardiovascular and chronic inflammation diseases in the presence or absence of the compounds. Biomarker read out were; Tissue Factor, ICAM-1, E-selectin, uPAR (CD87), IL-8, MIG, HLA-DR, proliferation and SRB (Sulfo-rhodamine i.e. staining for protein content).

Setting [6] is: 10 uM, procedure of Example 829.

Consider `C[C@@H](O)CC(=O)CC(=O)SCCNC(=O)CCNC(=O)[C@H](O)C(C)(C)CO` [Compound 42, (2R)-2,4-dihydroxy-N-[2-[(2-[[(5R)-5-hydroxy-3-oxohexanoyl]sulfanyl]ethyl)carbamoyl]ethyl]-3,3-dimethylbutanamide], for which, in series [1] (setting [6]), the “% increase in sIL-2” value is reported as not below 10% and the “% increase in sTNFα” value is not below 10%. Further, the “% increase in Proliferation” value in series [2] is listed as not below 10%. Moreover, the “% increase in MCP-1” value in series [3] (10 uM) is not below 10%.
Take `CC(C)(COC(=O)OCC[N+](C)(C)C)[C@@H](O)C(=O)NCCC(=O)NCCSC(=O)CCC(=O)O` [Compound 116, [2-([[(3R)-3-[[2-([2-[(3-carboxypropanoyl)sulfanyl]ethyl]carbamoyl)ethyl]carbamoyl]-3-hydroxy-2,2-dimethylpropoxy]carbonyl]oxy)ethyl]trimethylazanium]: the “% decrease in B-cell proliferation” value in series [1] (1 uM, procedure of Example 829) is given as not below 10%. In series [1] (setting [6]), the “% decrease in sTNFα” value is not below 10%.
Regarding `COC(=O)CCC(=O)SCCNC(=O)CCNC(=O)[C@H](O)C(C)(C)COC(C)=O` [Compound 138], in series [1] (1 uM, procedure of Example 829), the “% decrease in sIL-2” value is listed as not below 10% and the “% decrease in sTNFα” value is not below 20%. Also, the “% increase in SRB” value in series [3] (10 uM) is reported as not below 10%.
Consider `COC(=O)CC(SCCNC(=O)CCNC(=O)[C@H](O)C(C)(C)COC(C)=O)C(=O)OC` (stereo partly drawn) [Compound 149, 1,4-dimethyl 2-[(2-[3-[(2R)-4-(acetyloxy)-2-hydroxy-3,3-dimethylbutanamido]propanamido]ethyl)sulfanyl]butanedioate], for which the “% prevention of forskolin-induced cyst swelling” value (shortened to “% prevention”) in series [4] (50 uM) is reported as not below 10%. Also, in series [1] (setting [6]), the “% increase in sIL-2” value is on record as not below 20% and the “% increase in sTNFα” value is not below 10%.
Take `CC(C)(CO)[C@@H](O)C(=O)NCCC(=O)NCCSC(=O)[C@@H](N)Cc1ccc(O)c(O)c1` [Compound 371, (2R)—N-[2-[(2-[[(2S)-2-amino-3-(3,4-dihydroxyphenyl)propanoyl]sulfanyl]ethyl)carbamoyl]ethyl]-2,4-dihydroxy-3,3-dimethylbutanamide]: in series [5], the “% increase in Proliferation (HUVEC)” value is not below 10%. In addition, in series [1] (1 uM, procedure of Example 829), the “% increase in sIL-2” value was not below 20%. For the same molecule, in series [1] (human, 72 h, 10 µM), the “% increase in PBMC cytotoxicity” value is on record as not below 10%. Further, in series [2], the “% decrease in Proliferation” value is not below 10% and the “% increase in PBMC cytotoxicity” value is listed as not below 10%. Further, in series [3] (1 uM), the “% increase in MMP-9” value was not below 10% and the “% increase in MCP-1” value is not below 10%.
With `CCCCCCC(=O)SCCNC(=O)CCNC(=O)[C@H](O)C(C)(C)CO` [Compound 372, (2R)—N-(2-[[2-(heptanoylsulfanyl)ethyl]carbamoyl]ethyl)-2,4-dihydroxy-3,3-dimethylbutanamide], the “% increase in Proliferation (HUVEC)” value in series [5] is not below 20%. Besides, in series [1] (1 uM, procedure of Example 829), the “% increase in sIL-2” value was not below 10%. In addition, in series [1] (setting [6]), the “% increase in sIL-17” value is given as not below 20%. Moreover, in series [2], the “% increase in Proliferation” value is not below 10%.
As to `CC(=O)SCCNC(=O)CCNC(=O)[C@H](O)C(C)(C)COC(=O)[C@@H](N)Cc1ccc(O)c(O)c1` [Compound 498, (3R)-3-[(2-[[2-(acetylsulfanyl)ethyl]carbamoyl]ethyl)carbamoyl]-3-hydroxy-2,2-dimethylpropyl (2S)-2-amino-3-(3,4-dihydroxyphenyl)propanoate], in series [1] (1 uM, procedure of Example 829), the “% increase in sTNFα” value is given as not below 10%. The “% increase in sIL-2” value in series [1] (setting [6]) is given as not below 20%. The “% decrease in Proliferation” value in series [2] is listed as not below 10%. The “% increase in MCP-1” value in series [3] (1 uM) was not below 10%. Further, the “% increase in TIMP-2” value in series [3] (10 uM) was not below 10%.
For `CC(C)(CO)[C@@H](O)C(=O)NCCC(=O)NCCSC(=O)C1CCC(=O)N1` (stereo partly drawn) [Compound 1227, S-2-{3-[(R)-2,4-dihydroxy-3,3-dimethylbutyrylamino]propionylamino}ethyl 5-oxo-2-pyrrolidinecarbothioate], in series [4] (10 uM), the “% prevention” value is on record as not below 10%.
Take `C[C@H](CC(=O)SCCNC(=O)CCNC(=O)[C@H](O)C(C)(C)CO)OC(=O)CCC(=O)O` [Compound 1243, 4-{[(2R)-4-[(2-{3-[(2R)-2,4-dihydroxy-3,3-dimethylbutanamido]propanamido}ethyl)sulfanyl]-4-oxobutan-2-yl]oxy}-4-oxobutanoic acid]: the “% prevention” value in series [4] (50 uM) was not below 10%.
On to `CC(=O)OCC(C)(C)[C@@H](OC(C)=O)C(=O)NCCC(=O)NCCSC(C)=O` [Compound 1264, (1R)-3-(acetyloxy)-1-[(2-[[2-(acetylsulfanyl)ethyl]carbamoyl]ethyl)carbamoyl]-2,2-dimethylpropyl acetate], for which, in series [5], the “% increase in Proliferation (HUVEC)” value is not below 10%. Moreover, in series [1] (setting [6]), the “% decrease in sTNFα” value is on record as not below 10% and the “% increase in B-cell Proliferation” value is reported as not below 10%. In series [3] (1 uM), the “% decrease in IL-1a” value is not below 10% and the “% increase in MCP-1” value is recorded as not below 10%.
As for `COC(=O)CCC(=O)SCCNC(=O)CCNC(=O)[C@H](OC(=O)CN)C(C)(C)CO` [Compound 1294, methyl 4-[(2-[3-[(2R)-2-[(2-aminoacetyl)oxy]-4-hydroxy-3,3-dimethylbutanamido]propanamido]ethyl)sulfanyl]-4-oxobutanoate], in series [5], the “% decrease in IL-8” value is not below 10% and the “% increase in Proliferation (HUVEC)” value was not below 20%. Also, the “% increase in B-cell Proliferation” value in series [1] (1 uM, procedure of Example 829) is not below 10%. Also, in series [1] (setting [6]), the “% decrease in sIL-2” value is listed as not below 10%. The “% decrease in MMP-9” value in series [3] (1 uM) is not below 10%. The “% increase in IL-1α” value in series [3] (10 uM) is not below 10%.
With `COC(=O)CCC(=O)SCCNC(=O)CCNC(=O)[C@H](OC(=O)CNC(C)=O)C(C)(C)CO` [Compound 1298, methyl 4-[(2-[3-[(2R)-2-[(2-acetamidoacetyl)oxy]-4-hydroxy-3,3-dimethylbutanamido]propanamido]ethyl)sulfanyl]-4-oxobutanoate], in series [5], the “% decrease in IL-8” value is given as not below 10%. For the same molecule, in series [1] (1 uM, procedure of Example 829), the “% increase in B-cell Proliferation” value was not below 10% and the “% increase in sIL-17” value is not below 20%. For the same molecule, the “% decrease in sTNFα” value in series [1] (setting [6]) is not below 10%.
For `CC(C)(CO)[C@@H](O)C(=O)NCCC(=O)NCCSC(=O)CCCO` [Compound 1304, (2R)-2,4-dihydroxy-N-[2-([2-[(4-hydroxybutanoyl)sulfanyl]ethyl]carbamoyl)ethyl]-3,3-dimethylbutanamide], the “% prevention” value in series [4] (10 uM) is reported as not below 10%.
